Source: patent US5648330A, “Method and composition for treating vascular graft occlusion” (La Jolla Cancer Research Foundation, priority 1995, dated 1997)
pIC50: −log10 of the molar value. “And” between values parts separate entries of the source, which are not always exact repeats. Equal values may be shown once. Where no end group is shown, it is not given here. [ ]: non-standard residue; d: D form. Pen = CC(C)(S)[C@H](N)C(=O)O

Key:
[1] = tested on: platelets stimulated with ADP; experiment: ADP-stimulated platelet aggregation (Born aggregometry, PRP); format: cell-based, human; conditions: ADP 10 μm, platelet-rich plasma, 37° C.
Experimental: Platelet aggregation was assessed using the method of Born, Nature 194: 927-929 (1962), incorporated herein by reference. Briefly, the change in light transmission was measured through a stirred suspension of platelets in an aggregometer (Model 400 VS, Chrono-Log, Havertown, Pa., USA). Studies employing ADP were performed with platelet-rich plasma (PRP), which was obtained by low-speed centrifugation (200× g for 10 min.) of whole blood freshly drawn into trisodium citrate (at a final concentration of 11 mM). […] For all studies, the reference standard was platelet-poor plasma, which was obtained by centrifuging PRP at 1000× g for 5 min.

[2] = tested on: platelets stimulated with thrombin; experiment: Thrombin-stimulated platelet aggregation (Born aggregometry); format: cell-based, human; conditions: thrombin 2 U/ml, gel-filtered platelets, 37° C.
Experimental: Platelet aggregation was assessed using the method of Born, Nature 194: 927-929 (1962), incorporated herein by reference. Briefly, the change in light transmission was measured through a stirred suspension of platelets in an aggregometer (Model 400 VS, Chrono-Log, Havertown, Pa., USA). […] In studies using thrombin, the PRP was gel-filtered on Sepharose 2B in divalent ion-free Tyrode's solution containing 2% BSA. For all studies, the reference standard was platelet-poor plasma, which was obtained by centrifuging PRP at 1000× g for 5 min.
All aggregation studies were performed at 37° C. with a constantly stirred suspension of 3×10^8 platelets/ml. (Platelet count was determined with the aid of a hemacytometer.) Peptides and stimulants were added to these suspensions in 1% dilutions. The PRP and gel-filtered platelets were used within three hours from the time of blood collection.
Peptide anti-aggregation potencies were determined from dose-responsive curves for the inhibition of the maximum aggregation responses stimulated by physiologic doses of ADP (10 μm) and thrombin (2 U/ml).

[3] = tested on: canine platelet aggregation; experiment: In vitro canine platelet aggregation stimulated by ADP, arachidonic acid or collagen; format: cell-based, dog; conditions: 10 μm ADP, […] arachidonic acid or 9.6 micrograms/ml collagen; PRP; read-out: IC50 against canine platelet aggregation
Experimental: (§1) Platelet counts and ex vivo aggregation studies were performed one hour before and 1, 3, and 5 hours after application of anodal direct current.
Epinephrine (550 nM) was used to prime platelets before stimulation with arachidonic acid. Peptides were added in 1% dilutions to the PRP solutions.

platelet aggregation [4] = experiment: Ex vivo platelet aggregation after peptide injection in canine coronary thrombosis model; design: species or system dog; conditions: for ex vivo aggregation reduced relative to control: 3 mg/kg
Experimental: For all ex vivo studies (see FIGS. 3a, 3b1, 3b2, 3b3, 3c1 and 3c2), control aggregation values were standardized to the percentages of light transmission observed in PRP and PPP samples (0% and 100%, respectively).
(§2) Animals were randomly assigned to two treatment groups: vehicle control (i.e., normal saline) or RGD peptides at various concentrations. Peptides were administered intra-atrially in both bolus and continuous injections. […] A continuous infusion of the same peptide was then started immediately after completion of this initial injection. Animals that received a 5 mg/kg bolus also received a 5 mg/kg/hr infusion, whereas animals that received a 10 mg/kg bolus also received a 10 mg/kg/hr infusion. The anti-thrombotic effects of the peptides were monitored until 30 minutes after the occurrence of a persistent, occlusive thrombus or five hours after the initiation of electrical stimulation (whichever resulted first). If an occlusive thrombus had not developed within four hours after the initiation of current, the peptide infusion was stopped.
as §1
Platelet aggregation was also determined ex vivo at one, three, and five hours after current application. For these studies, arachidonic acid, or collagen was again used to stimulate the platelets.
The average aggregation values determined in these studies for all of the peptide treatments are depicted in FIGS. 3a, 3b1, 3b2, 3b3, 3c1, and 3c2. […] The control responses in these studies were 70-80% of maximum. […] Here the control responses were 55-80% of maximum.

coronary thrombosis = experiment: Electrically induced canine coronary thrombosis, time to full occlusion; format: in vivo, dog
Experimental: Male mongrel dogs weighing 14 to 20 kg were selected based on proper aggregation of their platelets in response to arachidonic acid, collagen, and adenosine disphosphate (ADP) and based on similar weights and hemodynamic properties.
Before surgery, the animals were anesthetized with sodium pentobarbital (30 mg/kg, i.v.) and then intubated and ventilated on room air with positive pressure using a respirator (Harvard Apparatus, S. Natick, Mass.) at a volume of 30 ml/kg and a frequency of 12 breaths/min. Surgery, performed under aseptic conditions, was begun with the placement of cannulae into the left carotid artery and jugular vein for monitoring arterial blood pressure (Statham P23 pressure transducer, Gould, Inc., Cardiovascular Products, Oxnard, Calif.) and administering intravenous fluids.
The heart was exposed via a left thoracotomy through the 5th intercostal space. A 2-cm segment of the left circumflex coronary artery (LCCA) was isolated from surrounding tissue by blunt dissection. […] The intra-coronary electrode was constructed by attaching a 25-gauge hypodermic needle tip to a 30-gauge Teflon-insulated silver-coated copper wire. The mechanical occluder was constructed of stainless steel in a C shape with a Teflon screw (2 mm diameter) on top. It was adjusted to control vessel circumference and decrease the reactive hyperemic flow due to a 10-sec (full) occlusion by 50-70% without affecting basal coronary blood flow (FIG. 1c). A monopolar epicardial electrode was sutured to the surface of the ventricle in the region of LCCA distribution to monitor ischemic changes in the electrocardiogram (ECG). The left atrium was cannulated with polythylene tubing for administration of the peptide. Continuous recordings of blood pressure, limb lead II ECG, epicardial electrogram, and mean and phasic LCCA blood flow were obtained on a Model 7 polygraph (Grass Instrument Co., Quincy, Mass.).
One hour after the completion of surgery, a 100 micro-amp continuous anodal direct current delivered from a 9 volt nickel-cadmium battery was applied to the intimal surface of the LCCA. The anode of the battery was in series with a 250,000 ohm potentiometer and the intraluminal coronary artery electrode. The electric circuit was completed by placing the cathode in a subcutaneous site. Electrical stimulation was applied for three hours. At the conclusion of each experiment, the heart was fibrillated electrically and quickly removed, and the LCCA was dissected free as far as possible to verify the position of the implanted anodal electrode.
as §2
Coronary thrombosis was quantified as the time to full occlusion. The effects of the various peptide treatments on coronary thrombosis is illustrated in FIG. 4.

[5] = tested on: Gore-tex vascular graft thrombosis; experiment: Platelet and fibrinogen uptake by Gore-tex grafts in baboon ex vivo shunt
Experimental: Adult male baboons (weighing 16 to 25 kg) were used in these studies. These were sedated with ketamine hydrochloride (200 to 250 mg intramuscular injection) and maintained under anesthesia with sodium pentobarbital (50 to 75 mg administered intravenously as necessary).
Twenty-four hours before the ex vivo shunt was established, platelets were isolated from 500 ml of blood from the test animal and labelled with ca. 500 microcuries of indium-111 oxine (Medi+Physics, Emeryville, Calif.), which irreversibly and specifically binds to platelets with an efficiency of 50%. Immediately after labelling, these platelets were then injected back into the animal and allowed to circulate for 24 hours. Immediately before the start of the study, fibrinogen that had been isolated from the animal and labelled with iodine-131 (DuPont Nuclear, Boston, Mass.) was also injected back into the animal. Also at this time, baseline determinations of the clotting and template bleeding times were made, and blood samples were drawn for hematology studies.
To establish the ex vivo shunt, the femoral artery and vein were percutaneously cannulated with introducer catheters (KMA Inc., Mansfield, Mass.). The catheters were then connected to medical-grade, heparin-coatedsilastic tubing (2.59 mm internal diameter, (Extracorporeal Medical Specialties, Inc., King of Prussia, Pa.). […] Finally, a 5 cm-long test segment of a 4 mm (internal diameter) vascular graft was inserted at the apex of the circuit. The graft used in these studies was Gore-tex (expanded polytetrafluoroethylene, (W. L. Gore and Associates, Inc., Flagstaff, Ariz.). An electromagnetic flow probe was then inserted into the tubing circuit to measure blood flow, which was maintained at 100 ml/min. by varying the resistance imported by a partially occluding screw clamp that was distal to the probe. Finally, a 5 cm-long test segment of a 4 mm (internal diameter) vascular graft was inserted at the apex of the circuit. The graft used in these studies was Gore-tex (expanded polytetrafluoroethylene, W. L. Gore and Associates, Inc., Flagstaff, Ariz.).
Platelet deposition onto the grafts was monitored by dynamic scanning with a gamma camera (Sigma 400, Ohio Nuclear, Inc., Sohon, Ohio), which detects the gamma radiation emitted by the indium^111 -labelled platelets. Once the circuit was in place, the animal was placed under this camera, and blood flow was initiated. Scans were then taken at the rate of one frame per two minutes for two hours. The data from these scans were collected on a dedicated Digital MDA computer (Maynard, Mass.). […]

platelet aggregation [6] = experiment: Ex vivo ADP-stimulated platelet aggregation in baboon PRP; conditions: animal 2; ADP 10 μm; 0, 1 and 2 hours
Experimental: At one- and two-hour time points, template bleeding times were measured, and blood samples were drawn to assess the hematology aggregation studies. Platelet aggregation studies were performed as described in Example V using ADP as the stimulus.
In addition, platelet aggregation studies were conducted on PRP derived from the second animal. Whole blood was drawn at three time points (0, 1 and 2 hours) of both control and experimental shunts.

[7] = 10 mg/kg bolus + 10 mg/kg/hr infusion, intra-atrial
[8] = 10 mg/kg, all three time points
[9] = animal 1, two bolus IV injections of 10 mg/kg
[10] = animal 2, 10 mg/kg IV bolus + 10 mg/kg/hr infusion for two hours

Row | Substance | pIC50 [1] | pIC50 [2] | further results
1 | VRGDSPDG | 4.04 |  | 
2 | RPenGRGDWPCR |  | 6.28 | pIC50 [3]: 5.30 to 5.82; ex vivo aggregation reduced relative to control (platelet aggregation [4]; one hour): 20-58%; ex vivo aggregation reduced relative to control (platelet aggregation [4]; three and five hours, listed as 4R): 75-100% and 72-100%; ex vivo platelet response to all modes of stimulation (platelet aggregation [4]; 10 mg/kg, all time points): unresponsive; time to full occlusion (coronary thrombosis; 3 mg/kg): ineffective; time to full occlusion (coronary thrombosis; [7]): prevented occlusion
3 | G[Pen]GRGDSFCA (cysteine pairing not given here) | 3.94 |  | 
4 | (t-but-am-Pmp)GHRGDLRPenA | 4.05 |  | 
5 | RPenGRGDTPCR | 5.20 | 5.70 | 
6 | G[Pen]YRGDSPCA (cysteine pairing not given here) | 4.33 |  | 
7 | GPenGRGDTPCA | 4.65 | 4.55 | 
8 | R(orn)GHRGDLRDR | < 3.70 |  | 
9 | R[Pen]GRGDSRCA (cysteine pairing not given here) | 4.92 | 4.92 | 
10 | GPenGRGDRPCA | 4.65 |  | 
11 | R[Pen]GRGDLRCA (cysteine pairing not given here) | 4.80 | 4.89 | 
12 | GPenGHRGDLRCA |  |  | pIC50 [3]: 4.52 to 4.82; ex vivo inhibition of AA-stimulated aggregation relative to control (platelet aggregation [4]; [8]): 43-70%; ex vivo inhibition of collagen-stimulated aggregation relative to control (platelet aggregation [4]; [8]): 12-50%; ex vivo inhibition of ADP-stimulated aggregation (platelet aggregation [4]; 10 mg/kg, one, three, five hours): substantially inhibited; time to full occlusion (coronary thrombosis; [7]): did not significantly influence; reduction in I131-fibrinogen uptake by graft [5, 9]: 79%; reduction in In111-platelet uptake by graft [5, 9]: 90%; reduction in labelled fibrinogen uptake by graft [5, 10]: 78%; reduction in labelled platelet uptake by graft [5, 10]: 84%; ex vivo platelet response to ADP (platelet aggregation [6]): completely unresponsive
13 | R2 PenGRGDTPCA | 5.09 | 5.57 | 
14 | RPenGHRGDWRCR | 5.89 | 5.92 | pIC50 [3]: 5.30 to 5.82; ex vivo inhibition of platelet activation by collagen (platelet aggregation [4]; 5 mg/kg): near-maximal inhibition; ex vivo platelet response to ADP and AA (platelet aggregation [4]; 5 mg/kg, all three time points): completely unresponsive; ex vivo anti-aggregation effect when platelet count was low (platelet aggregation [4]; 5 mg/kg, platelet count ca. one-third of normal (104,000/ml vs. 361,000/ml)): more pronounced; ex vivo platelet responsiveness (platelet aggregation [4]; 10 mg/kg, five-hour point): slightly improved; ex vivo platelet aggregation by all three stimuli (platelet aggregation [4]; 10 mg/kg, one- and three-hour time points): prevented platelet aggregation; thrombus formation in animals with circulating platelet levels one-third of normal (coronary thrombosis; 5 mg/kg): able to prevent thrombus formation; time to full occlusion (coronary thrombosis; 5 mg/kg bolus + 5 mg/kg/hr infusion): significantly prolonged the time to occlusion; time to full occlusion (coronary thrombosis; [7]): completely prevented occlusion
15 | LRGDSPDG | 3.82 |  | 
16 | GPenFRGDSFCA | < 3.70 |  | 
17 | GPenLRGDTPCA | 4.07 |  | 
18 | GPenLRGDSRCA | 4.39 | 4.31 | 
19 | (t-butylAmino-Pmp) GHRGDLRCA | 3.89 |  | 
20 | R[Pen]GHRGDTRCR (cysteine pairing not given here) | 5.06 |  | 
21 | RPenGRGDTPCA | 5.15 | 5.51 | 
22 | GPenLRGDSPCA | 3.38 | 3.51 | 
23 | PmpGRGDTPCA | 4.07 |  | 
24 | RPenGRGDTPCK | 5.12 |  | 
25 | FRGDSPDG | 3.96 |  | 
26 | LPenGHRGDLRCA | 4.98 |  | 
27 | GPenGHRGDTRCA | 4.95 | 4.77 | 
